Test results: ChEMBL document CHEMBL6109153, “Development of Membrane-Targeting Osthole Derivatives Containing Pyridinium Quaternary Ammonium Moieties with Potent Anti-Methicillin-Resistant Staphylococcus aureus Properties” (J Med Chem, 2025)
Values after ≈ are worked out from the molar mass of the structure shown.

How the values were obtained:
Staphylococcus aureus [1] = test: Induction of cell permeability in methicillin-resistant Staphylococcus aureus M11 assessed as fold increase in fluorescence intensity at 32 times MIC by SYTOX Green dye based analysis relative to control; assay type: functional
Staphylococcus aureus [2] = test: Antibacterial activity against methicillin-resistant Staphylococcus aureus M22 incubated for 16 to 20 hrs by broth microdilution method; assay type: functional; conditions: time 16-20 hrs
[3] = Hemolytic activity against sheep erythrocytes; assay type: toxicity, cell-based, Ovis aries, Erythrocyte
Staphylococcus aureus [4] = test: Antibacterial activity against methicillin-resistant Staphylococcus aureus M13 incubated for 16 to 20 hrs by broth microdilution method; assay type: functional; conditions: time 16-20 hrs
Staphylococcus aureus [5] = test: Antibacterial activity against methicillin-resistant Staphylococcus aureus M16 incubated for 16 to 20 hrs by broth microdilution method; assay type: functional; conditions: time 16-20 hrs
Staphylococcus aureus [6] = test: Antibacterial activity against methicillin-resistant Staphylococcus aureus M14 incubated for 16 to 20 hrs by broth microdilution method; assay type: functional; conditions: time 16-20 hrs
Staphylococcus aureus [7] = test: Antibacterial activity against methicillin-resistant Staphylococcus aureus M20 incubated for 16 to 20 hrs by broth microdilution method; assay type: functional; conditions: time 16-20 hrs
Staphylococcus aureus [8] = test: Antibacterial activity against methicillin-resistant Staphylococcus aureus M12 incubated for 16 to 20 hrs by broth microdilution method; assay type: functional; conditions: time 16-20 hrs
Escherichia coli = test: Antibacterial activity against Escherichia coli ATCC 25922 incubated for 16 to 20 hrs by broth microdilution method; assay type: functional; conditions: time 16-20 hrs
Staphylococcus aureus [9] = test: Antibacterial activity against methicillin-resistant Staphylococcus aureus M21 incubated for 16 to 20 hrs by broth microdilution method; assay type: functional; conditions: time 16-20 hrs
Staphylococcus aureus [10] = test: Antibacterial activity against Staphylococcus aureus ATCC 29213 incubated for 16 to 20 hrs by broth microdilution method; assay type: functional; conditions: time 16-20 hrs
Staphylococcus aureus [11] = test: Antibacterial activity against methicillin-resistant Staphylococcus aureus M23 incubated for 16 to 20 hrs by broth microdilution method; assay type: functional; conditions: time 16-20 hrs
Staphylococcus aureus [12] = test: Antibacterial activity against methicillin-resistant Staphylococcus aureus M11 incubated for 16 to 20 hrs by broth microdilution method; assay type: functional; conditions: time 16-20 hrs
Staphylococcus aureus [13] = test: Antibacterial activity against methicillin-resistant Staphylococcus aureus M17 incubated for 16 to 20 hrs by broth microdilution method; assay type: functional; conditions: time 16-20 hrs
Staphylococcus aureus [14] = test: Induction of resistance development in Staphylococcus aureus ATCC 29213 assessed as fold change in MIC at 0.5 times MIC measured after 18 passages by broth microdilution method; assay type: functional

Row | SMILES | fold change (FC) (Staphylococcus aureus [1]) | MIC (Staphylococcus aureus [2]) [µg/mL] | HC50 [3] [µg/mL] | MIC (Staphylococcus aureus [4]) [µg/mL] | MIC (Staphylococcus aureus [5]) [µg/mL] | MIC (Staphylococcus aureus [6]) [µg/mL] | MIC (Staphylococcus aureus [7]) [µg/mL] | MIC (Staphylococcus aureus [8]) [µg/mL] | MIC (Escherichia coli) [µg/mL] | MIC (Staphylococcus aureus [9]) [µg/mL] | MIC (Staphylococcus aureus [10]) [µg/mL] | MIC (Staphylococcus aureus [11]) [µg/mL] | MIC (Staphylococcus aureus [12]) [µg/mL] | MIC (Staphylococcus aureus [13]) [µg/mL] | fold change (FC) (Staphylococcus aureus [14])
1 | CC[C@H](C)[C@H](NC(=O)CN)C(=O)NCC(=O)N[C@@H](C)C(=O)N[C@H](C(=O)N[C@@H](CC(C)C)C(=O)N[C@@H](CCCCN)C(=O)N[C@H](C(=O)N[C@@H](CC(C)C)C(=O)N[C@H](C(=O)N[C@H](C(=O)NCC(=O)N[C@@H](CC(C)C)C(=O)N1CCC[C@H]1C(=O)N[C@@H](C)C(=O)N[C@@H](CC(C)C)C(=O)N[C@H](C(=O)N[C@@H](CO)C(=O)N[C@@H](Cc1c[nH]c2ccccc12)C(=O)N[C@H](C(=O)N[C@@H](CCCCN)C(=O)N[C@@H](CCCNC(=N)N)C(=O)N[C@@H](CCCCN)C(=O)N[C@@H](CCCNC(=N)N)C(=O)N[C@@H](CCC(N)=O)C(=O)N[C@@H](CCC(N)=O)C(N)=O)[C@@H](C)CC)[C@@H](C)CC)[C@@H](C)O)[C@@H](C)O)C(C)C)C(C)C [MELITTIN] | ~8 |  |  |  |  |  |  |  |  |  |  |  |  |  | 
2 | CCCCN(CCCC)C(=O)C[n+]1ccc(SCCCCCOc2ccc3ccc(=O)oc3c2CC=C(C)C)cc1.[Br-] |  | 1 | > 160 | 1 | 1 | 0.5 | 0.5 | 1 | > 128 | 1 | 1 | 1 | 0.5 | 2 | 
3 | CCn1cc(C(=O)O)c(=O)c2cc(F)c(N3CCNCC3)cc21 [NORFLOXACIN] |  |  |  |  |  |  |  |  |  |  |  |  |  |  | 128
4 | CCCN(CCC)C(=O)C[n+]1ccc(SCCCCOc2ccc3ccc(=O)oc3c2CC=C(C)C)cc1.[Br-] |  | 2 | > 160 | 8 | 2 | 2 | 1 | 4 | > 128 | 2 | 2 | 2 | 2 | 2 | 
5 | CC(C)=CCc1c(OCCCCCSc2cc[n+](CC(=O)N(C)c3ccccc3)cc2)ccc2ccc(=O)oc12.[Br-] |  | 4 | > 160 | 4 | 2 | 2 | 2 | 4 | > 128 | 4 | 2 | 2 | 2 | 8 | 
6 | CC(C)=CCc1c(OCCCCCSc2cc[n+](CC(=O)N3CCOCC3)cc2)ccc2ccc(=O)oc12.[Br-] |  | 32 | > 160 | 64 | 16 | 16 | 16 | 32 | > 128 | 32 | 32 | 32 | 16 | 32 | 
7 | CCCCCCNC(=O)C[n+]1ccc(SCCCOc2ccc3ccc(=O)oc3c2CC=C(C)C)cc1.[Br-] |  | 4 | > 160 | 4 | 4 | 2 | 2 | 4 | 64 | 4 | 1 | 2 | 2 | 4 | 
8 | CCCCN(CCCC)C(=O)C[n+]1ccc(SCCCCOc2ccc3ccc(=O)oc3c2CC=C(C)C)cc1.[Br-] |  | 0.5 | > 160 | 2 | 1 | 1 | 0.5 | 2 | > 128 | 0.5 | 1 | 0.5 | 1 | 1 | 
9 | CCCCNC(=O)C[n+]1ccc(SCCCCCOc2ccc3ccc(=O)oc3c2CC=C(C)C)cc1.[Br-] |  | 1 | > 160 | 2 | 2 | 1 | 1 | 2 | > 128 | 1 | 2 | 2 | 1 | 2 | 
10 | CCCCN(CCCC)C(=O)C[n+]1ccc(SCCCOc2ccc3ccc(=O)oc3c2CC=C(C)C)cc1.[Br-] |  | 2 | > 160 | 4 | 2 | 1 | 1 | 4 | > 128 | 2 | 1 | 2 | 1 | 1 | 
11 | CCCN(CCC)C(=O)C[n+]1ccc(SCCCOc2ccc3ccc(=O)oc3c2CC=C(C)C)cc1.[Br-] |  | 8 | > 160 | 16 | 8 | 8 | 4 | 16 | 128 | 8 | 4 | 8 | 4 | 8 | 
12 | CCCCNC(=O)C[n+]1ccc(SCCCOc2ccc3ccc(=O)oc3c2CC=C(C)C)cc1.[Br-] |  | 4 | > 160 | 8 | 4 | 4 | 4 | 8 | > 128 | 4 | 2 | 8 | 4 | 8 | 
13 | CC(C)=CCc1c(OCCCCSc2cc[n+](CC(=O)N(C)c3ccccc3)cc2)ccc2ccc(=O)oc12.[Br-] |  | 8 | > 160 | 8 | 4 | 4 | 2 | 8 | > 128 | 8 | 4 | 16 | 2 | 16 | 
14 | COc1ccc2ccc(=O)oc2c1CC=C(C)C [OSTHOLE] |  | 64 (≈ 262 µM) | > 80 | > 64 | 64 (≈ 262 µM) | 64 (≈ 262 µM) | 64 (≈ 262 µM) | 64 (≈ 262 µM) | > 64 | > 64 | > 64 | > 64 | > 64 | 64 (≈ 262 µM) | 
15 | CCCCCCNC(=O)C[n+]1ccc(SCCCCOc2ccc3ccc(=O)oc3c2CC=C(C)C)cc1.[Br-] |  | 2 | > 160 | 2 | 2 | 1 | 1 | 2 | 32 | 2 | 1 | 2 | 1 | 1 | 
16 | CC(C)=CCc1c(OCCCSc2cc[n+](CC(=O)N(CC(C)C)CC(C)C)cc2)ccc2ccc(=O)oc12.[Br-] |  | 2 | > 160 | 4 | 2 | 2 | 2 | 4 | > 128 | 2 | 2 | 2 | 1 | 4 | 
